Measured values from PMC7746546, “The JAK1 Selective Inhibitor ABT 317 Blocks Signaling Through Interferon-γ and Common γ Chain Cytokine Receptors to Reverse Autoimmune Diabetes in NOD Mice” (Frontiers in Immunology, 2020).

Assays:
[1] = tested on: IFN-γ mediated MHC class I upregulation on β cells; set-up: method as in PMID 28292965; conditions: cited from earlier work
[2] = tested on: autoimmune insulitis in NOD mice; set-up: method as in PMID 28292965; conditions: cited from earlier work
[3] = tested on: IL-21 signaling in T cells; assay: IL-21-induced pSTAT3 in spleen T cells in vitro (flow cytometry); format: cell-based, mouse; conditions: 0.05, 0.2, 1 and 2 µM, CD8+ and CD4+ T cells, Fig S2K-L
Procedure: […] […] For use in vivo, 3 mg/kg or 10 mg/kg of drug was delivered twice daily by oral gavage in the vehicle 0.5% hydroxypropyl methylcellulose in sterile H2O. The JAK1/JAK2 inhibitor baricitinib was purchased from SelleckChem and used at a concentration of 3 mg/kg in vivo made up in a vehicle of 0.5% methyl cellulose.
Single-cell suspensions from the spleens were prepared by mechanical tissue disruption through a 70 μm cell strainer followed by red cell lysis. Cells were resuspended in FACS buffer (0.5% FCS in PBS) and filtered through a nylon mesh.
Whole islets were treated with vehicle or ABT 317 for 1 h before culture with 10 ng/ml IFN-γ for 72 h, and analysis by flow cytometry. Splenocytes and whole blood were stimulated with 100 U/ml IL-2, 50 ng/ml IL-7, 30 ng/ml IL-15, 25 ng/ml IL-21, or 40 ng/ml GM-CSF for 30 min at 37°C. Red blood cells were lysed (155 mmol/L NH4Cl, 10 mmol/L Tris-HCl, pH 7.5). Leukocytes were analyzed by flow cytometry.
Mouse islet cells were stained with anti-CD45 and biotinylated anti-H2Kd (BD Pharmingen) followed by streptavidin-allophycocyanin (BioLegend). β‐cells were identified by autofluorescence ([23]). Dead cells were excluded using propidium iodide. […] Data were collected on the FACS Fortessa cell analyzer (BD Bioscience, San Jose, CA, USA) and were analyzed using FlowJo Software version 10 (TreeStar, Inc, Ashland, OR, USA).

[4] = set-up: method as in PMID 29481660; conditions: participants with diabetic kidney disease, phase 2 trial; cited from earlier work
[5] = cited from earlier work
[6] = tested on: JAK1 over JAK3; set-up: method as in PMID 30806706, PMID 27390150; conditions: cited from earlier work
[7] = tested on: JAK2-dependent cytokines IL-3 and GM-CSF; conditions: cited from earlier work
[8] = tested on: JAK1 over JAK2; set-up: method as in PMID 30806706, PMID 27390150; conditions: cited from earlier work

Compound: Cc1cc(Nc2nc(N[C@@H](C)c3ncc(F)cn3)ncc2Cl)n[nH]1 [AZD1480]
- IFN-γ mediated MHC class I upregulation on β cells [1]: blocked
- established autoimmune insulitis [2]: reversed
- immune cell infiltration into pancreatic islets [2]: reduced

Compound: CCS(=O)(=O)N1CC(CC#N)(n2cc(-c3ncnc4[nH]ccc34)cn2)C1 [baricitinib]
- blocking IL-21 signaling through pSTAT3, dose dependence [3]: similar
- albuminuria [4]: reduction
- neutropenia in clinical trials [5]: neutropenia has been found

Compound: O=C(Nc1nc2cccc(-c3ccc(CN4CCS(=O)(=O)CC4)cc3)n2n1)C1CC1 [filgotinib]
- anemia ([5]; rheumatoid arthritis patients): did not result in anemia

Compound: C[C@@H]1CCN(C(=O)CC#N)C[C@@H]1N(C)c1ncnc2[nH]ccc12 [tofacitinib]
- blocking IL-21 signaling through pSTAT3, dose dependence [3]: similar

Compound: CC[C@@H]1CN(C(=O)NCC(F)(F)F)C[C@@H]1c1cnc2cnc3[nH]ccc3n12 [upadacitinib]
- selectivity for JAK1 over JAK3 [6]: 58 fold
- effect on JAK2-dependent cytokines IL-3 and GM-CSF [7]: inhibits
- selectivity for JAK1 over JAK2 [8]: 74 fold
